Test results taken from US9505763B2, “Cancer treatment using BMP inhibitor” (Vanderbilt University, priority 2011, dated 2016).

Legend:
[1] = target: T1, constitutively active alk3 (ca-alk3) (Homo sapiens, UniProt P36894, Q233D); assay: BRE-luciferase with constitutively active alk3 in H1299 cells; format: cell-based; details: 1 μM antagonist
T1 construct: expressed in transfected cells; host or cells: H1299
Method: (§1) To assess the effects of antagonists on a specific type I BMP receptor, 2 μg of constitutively active ca-alk3 and ca-alk6 expression vectors were co-transfected with the BRE-luciferase reporter into H1299 cells with Nucleofector II. Control cells were co-transfected with the pcDNA3 expression vector. After 48 hours the cells were treated with DMSO or a BMP receptor antagonist for 48 hours and luminescence was measured.

alk6 = target: T2, alk6 (Mus musculus, UniProt P36898); details: reported [26]; cited from earlier work
T2 construct: host or cells: C2C12

Id1 and Id3 protein = assay: Western blot for Id1 and Id3; format: cell-based; details: for protein levels of Id1 and Id3: A549 and H1299 cells
Method: (§2) Western Blot Analysis. Total cellular protein was prepared using RIPA buffer containing a protease inhibitor cocktail and protein concentration was measured using the BCA assay as described. In brief, protein was analyzed by SDS-PAGE, transferred to nitrocellulose (Schleicher and Schuell, Keene, N.H.). After blocking, the blots were incubated overnight at 4° C. with the appropriate primary antibody in Tris-buffered saline with 1% Tween (TBST) and 5% non-fat milk. Secondary antibodies were applied for 1 hour at room temperature. Specific proteins were detected using the enhanced chemiluminescence system (Amersham, Arlington Heights, Ill.). The primary antibodies that were used were rabbit monoclonal anti-pSmad 1/5/8 (Cell signaling Technology, Danvers Mass.) rabbit anti-actin, an affinity isolated antigen specific antibody (Sigma, Saint Louis, Mo.), rabbit monoclonal anti-Id1 and rabbit monoclonal anti-Id3 (Calbioreagents, San Mateo, Calif.).

[2] = system: Id1, Id2, and Id3 expression; assay: Quantitative RT-PCR for Id family members; format: cell-based; details: A549 and H1299 cell lines; 10 μM Dorsomorphin, 1 μM DMH1 or DMH2; 48 hours
Method: Quantification of Gene Expression. RNA was extracted using the RNeasy kit as per the manufacturer's instructions (Qiagen, Valencia, Calif.). DNAase was used to remove any DNA contamination. cDNA was generated using Advantage RT for PCR kit (BD BiosciencesClontech, Palo Alto, Calif.). Quantitative PCR was performed with the Stratagene Mx3005p (Agilent Technologies) and predesigned validated Taq-Man gene expression assays according to the manufacturer's specifications (Applied Biosystems, Foster City, Calif.). Reference numbers used are: GAPDH (Hs99999905_m1), ACVRL1 (alk1) (Hs00163543_m1), ACVR1A (alk2) (Hs00153836_m1), BMR1A (alk3) (Hs00831730_s1), BMPR1B (alk6) (Hs00176144_m1), Id1 (Hs00357821_g1), Id2 (Hs00747379_m1), and Id3 (Hs00171409-m1). Negative control included all reagents except cDNA. Expression was normalized to GAPDH using the formula […].

[3] = system: phosphorylated Smad 1/5/8; assay: Western blot for phosphorylated Smad 1/5/8; format: cell-based; details: for level of phosphorylated Smad 1/5/8 expression: lung cancer cell lines (H1299, A549)
Method: as §2

A549 cells [4] = assay: Ethidium bromide uptake cell death assay; format: cell-based; details: 48 hours, 10 μM Dorsomorphin or 1 μM selective antagonist
Method: Cell Death Assay: A549 and H1299 cells were plated in 6 well plates with 10^6 cells per well. Cells were treated with DMSO or a BMP receptor antagonist for 12 and 48 hours. Adherent and floating cells were harvested and incubated with 0.1 mg/ml of ethidium bromide. Immediately after staining approximately 100 cells were counted and the percentage of cells that took up ethidium bromide was determined.

alk3 = target: T3, alk3 (Mus musculus, UniProt P36895); details: reported [26]; cited from earlier work
T3 construct: host or cells: C2C12

TGFβ receptor alk5 = target: T4, TGFβ receptor alk5 (Homo sapiens, UniProt P36897); details: compared with Dorsomorphin and LDN; cited from earlier work
T4 sequence (P36897 34-503): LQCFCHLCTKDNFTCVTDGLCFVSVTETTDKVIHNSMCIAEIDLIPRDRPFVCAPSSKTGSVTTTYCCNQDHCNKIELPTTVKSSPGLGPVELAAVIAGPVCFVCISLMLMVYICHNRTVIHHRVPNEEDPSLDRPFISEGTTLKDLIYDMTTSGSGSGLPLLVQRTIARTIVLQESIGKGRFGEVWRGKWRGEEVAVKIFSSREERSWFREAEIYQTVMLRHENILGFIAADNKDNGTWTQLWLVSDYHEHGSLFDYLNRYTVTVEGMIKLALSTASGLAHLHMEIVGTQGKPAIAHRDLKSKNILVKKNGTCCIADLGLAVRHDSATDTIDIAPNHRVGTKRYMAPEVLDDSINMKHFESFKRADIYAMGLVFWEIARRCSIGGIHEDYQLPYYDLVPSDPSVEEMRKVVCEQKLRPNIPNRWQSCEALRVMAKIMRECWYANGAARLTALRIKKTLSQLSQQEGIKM

VEGF II = VEGF II (Homo sapiens, UniProt P35968); details: compared with Dorsomorphin and LDN; cited from earlier work
[5] = target: platelet-derived growth factor receptor-β (Homo sapiens, UniProt P09619); details: compared with Dorsomorphin and LDN; cited from earlier work
[6] = system: constitutively active alk6 (ca-alk6); assay: BRE-luciferase with constitutively active alk6 in H1299 cells; format: cell-based; details: 1 μM antagonist
Method: as §1

alk2 = target: T5, alk2 (Mus musculus, UniProt P37172); details: reported [26]; cited from earlier work
T5 construct: host or cells: C2C12
T5 sequence (P37172 21-509): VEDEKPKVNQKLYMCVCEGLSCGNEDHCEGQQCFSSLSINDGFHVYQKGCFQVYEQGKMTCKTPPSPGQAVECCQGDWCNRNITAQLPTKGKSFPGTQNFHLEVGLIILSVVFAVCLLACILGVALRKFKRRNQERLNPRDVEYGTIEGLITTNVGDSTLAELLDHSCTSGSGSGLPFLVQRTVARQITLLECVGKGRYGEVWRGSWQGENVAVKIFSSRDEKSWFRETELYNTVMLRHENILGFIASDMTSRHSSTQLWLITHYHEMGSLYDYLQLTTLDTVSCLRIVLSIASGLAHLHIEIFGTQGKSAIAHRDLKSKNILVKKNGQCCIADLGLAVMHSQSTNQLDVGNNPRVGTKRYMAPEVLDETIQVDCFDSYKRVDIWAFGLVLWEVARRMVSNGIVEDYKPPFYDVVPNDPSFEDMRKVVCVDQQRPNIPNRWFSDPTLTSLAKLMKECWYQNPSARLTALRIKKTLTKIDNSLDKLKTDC

H1299 cells [7] = assay: Soft agar assay (anchorage independent growth); format: cell-based; details: H1299 in soft agar; 1 μM; 2 weeks
Method: (§3) Soft Agar Assay. A 1% agar mixture was prepared in sterile double-distilled water, microwaved, and cooled to 40° C. in a water bath. DMEM was also incubated at 40° C. Equal amounts of each were mixed and 1 ml added to each well of a six well plate. The base agar was allowed to solidify. A 0.7% agar mixture was prepared then cooled to 40° degrees. Cells were trypsinized and counted. Cells (2500 cells per well) were placed in pre-warmed DMEM containing DMSO or DMH1 […]. The treated cells were then mixed with the 0.7% agar and 2 ml placed on top of the base agar. Once solidified, 1 ml of DMEM was placed on top of the agar. […]

A549 cells [8] = assay: Soft agar assay (anchorage independent growth); format: cell-based; details: A549 in soft agar; 1 μM; 2 weeks
Method: as §3

Smad 1/5/8 activity = assay: BRE-luciferase reporter assay; format: cell-based; details: H1299 cells; 10 μM Dorsomorphin or 1 μM DMH1, DMH2, LDN; 48 hours; vs DMSO
Method: Luciferase Assays. 10^6 H1299 cells were transfected with 2 μg of BRE-luciferace plasmid using a Nucleofector II. […] Cells were lysed with luciferase lysis buffer (Promega). Samples were added to luciferase assay substrate (Promega) and luminsescence measured by the TD-20/20 Luminometer (Turner Designs/Turner BioSystems, Sunnyvale, Calif.). Control samples included luciferase assay substrate alone and luciferase assay substrate plus 1× reporter lysis buffer.

AMP kinase = details: compared with Dorsomorphin and LDN; cited from earlier work
H1299 cells [9] = assay: Cell counts after 7 days; format: cell-based; details: H1299, DMEM 5% FCS, 10 μM Dorsomorphin or 1 μM DMH1, DMH2, LDN
Method: (§4) Cell Counts. A549 and H1299 cells were plated into 6 well plates with 100,000 cells per well. Cells were treated with DMSO or a BMP receptor antagonist for 7 days. The cells were detached with trypsin, stained with trypan blue, and the number of live cells counted using a hemacytometer.

A549 cells [10] = assay: Cell counts after 7 days; format: cell-based; details: DMEM 5% FCS, 10 μM Dorsomorphin or 1 μM DMH1, DMH2, LDN
Method: as §4

H1299 cells [11] = assay: Clonogenic growth assay; format: cell-based; details: 1 μM, 2 weeks
Method: (§5) Clonigenic Growth Assay. A549 and H1299 cells were plated into 6 well plates with 500 cells per well. The next day the cells were treated with DMSO or a BMP receptor antagonist for 2 weeks. The colonies were stained with Diff-Quick (IMEB Inc. San Marcos, Calif.) and the total number of colonies per well counted.

A549 cells [12] = assay: Clonogenic growth assay; format: cell-based; details: 1 μM, 2 weeks
Method: as §5

T3 sequence (P36895 24-532): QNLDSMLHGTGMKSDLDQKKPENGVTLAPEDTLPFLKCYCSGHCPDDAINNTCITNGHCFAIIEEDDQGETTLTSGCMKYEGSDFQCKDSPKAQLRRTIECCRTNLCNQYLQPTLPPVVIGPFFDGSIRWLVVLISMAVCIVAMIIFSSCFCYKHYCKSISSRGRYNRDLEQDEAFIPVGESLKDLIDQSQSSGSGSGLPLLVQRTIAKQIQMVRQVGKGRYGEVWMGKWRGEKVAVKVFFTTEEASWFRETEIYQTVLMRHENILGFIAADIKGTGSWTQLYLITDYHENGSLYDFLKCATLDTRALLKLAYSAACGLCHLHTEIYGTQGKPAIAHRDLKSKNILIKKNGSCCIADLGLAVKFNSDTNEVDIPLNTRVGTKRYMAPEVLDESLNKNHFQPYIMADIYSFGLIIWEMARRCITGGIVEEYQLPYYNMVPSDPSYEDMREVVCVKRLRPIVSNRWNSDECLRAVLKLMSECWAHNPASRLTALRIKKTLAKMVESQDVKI
T2 sequence (P36898 14-502): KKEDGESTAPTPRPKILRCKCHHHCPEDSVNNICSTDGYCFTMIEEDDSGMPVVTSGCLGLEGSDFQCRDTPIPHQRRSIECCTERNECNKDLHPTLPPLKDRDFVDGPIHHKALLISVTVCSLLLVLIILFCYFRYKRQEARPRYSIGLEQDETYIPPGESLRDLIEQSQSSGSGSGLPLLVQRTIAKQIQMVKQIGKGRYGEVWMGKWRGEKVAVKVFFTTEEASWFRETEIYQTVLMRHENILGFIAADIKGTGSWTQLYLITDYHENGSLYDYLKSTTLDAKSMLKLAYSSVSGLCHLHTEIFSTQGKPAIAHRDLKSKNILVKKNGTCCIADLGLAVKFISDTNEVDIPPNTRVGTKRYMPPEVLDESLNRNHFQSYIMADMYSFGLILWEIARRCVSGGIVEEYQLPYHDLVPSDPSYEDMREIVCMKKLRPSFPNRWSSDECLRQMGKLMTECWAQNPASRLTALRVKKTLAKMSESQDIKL
Chain of platelet-derived growth factor receptor-β (P09619 33-1106, species assumed): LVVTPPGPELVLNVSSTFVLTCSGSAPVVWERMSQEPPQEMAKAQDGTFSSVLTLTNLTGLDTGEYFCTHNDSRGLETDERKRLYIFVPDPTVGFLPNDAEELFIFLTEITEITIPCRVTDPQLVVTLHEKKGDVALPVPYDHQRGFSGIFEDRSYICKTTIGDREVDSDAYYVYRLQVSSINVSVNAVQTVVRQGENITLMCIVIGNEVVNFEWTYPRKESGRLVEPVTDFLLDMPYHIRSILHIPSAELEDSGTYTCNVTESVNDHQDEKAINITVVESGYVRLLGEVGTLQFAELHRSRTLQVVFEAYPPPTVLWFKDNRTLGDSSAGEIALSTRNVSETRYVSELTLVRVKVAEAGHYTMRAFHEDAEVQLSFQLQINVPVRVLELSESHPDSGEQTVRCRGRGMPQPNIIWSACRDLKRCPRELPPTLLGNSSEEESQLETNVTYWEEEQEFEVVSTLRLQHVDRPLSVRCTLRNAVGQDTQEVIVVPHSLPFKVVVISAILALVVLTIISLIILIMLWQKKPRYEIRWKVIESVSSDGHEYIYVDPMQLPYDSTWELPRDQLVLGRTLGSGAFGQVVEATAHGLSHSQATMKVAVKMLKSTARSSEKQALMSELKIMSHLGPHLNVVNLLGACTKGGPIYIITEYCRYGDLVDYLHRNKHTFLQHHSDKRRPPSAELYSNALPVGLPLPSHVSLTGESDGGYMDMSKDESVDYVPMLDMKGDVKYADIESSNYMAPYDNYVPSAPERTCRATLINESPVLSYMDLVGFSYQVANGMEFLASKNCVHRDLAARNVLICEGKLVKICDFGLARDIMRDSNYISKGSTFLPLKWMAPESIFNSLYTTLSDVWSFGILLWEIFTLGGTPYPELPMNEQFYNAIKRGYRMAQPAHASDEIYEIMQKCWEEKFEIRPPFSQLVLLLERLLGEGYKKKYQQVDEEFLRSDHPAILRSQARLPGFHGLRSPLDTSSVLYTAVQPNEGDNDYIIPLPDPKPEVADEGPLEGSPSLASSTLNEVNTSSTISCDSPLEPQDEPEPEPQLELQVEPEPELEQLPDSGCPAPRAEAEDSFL
Chain of VEGF II (P35968 20-1356): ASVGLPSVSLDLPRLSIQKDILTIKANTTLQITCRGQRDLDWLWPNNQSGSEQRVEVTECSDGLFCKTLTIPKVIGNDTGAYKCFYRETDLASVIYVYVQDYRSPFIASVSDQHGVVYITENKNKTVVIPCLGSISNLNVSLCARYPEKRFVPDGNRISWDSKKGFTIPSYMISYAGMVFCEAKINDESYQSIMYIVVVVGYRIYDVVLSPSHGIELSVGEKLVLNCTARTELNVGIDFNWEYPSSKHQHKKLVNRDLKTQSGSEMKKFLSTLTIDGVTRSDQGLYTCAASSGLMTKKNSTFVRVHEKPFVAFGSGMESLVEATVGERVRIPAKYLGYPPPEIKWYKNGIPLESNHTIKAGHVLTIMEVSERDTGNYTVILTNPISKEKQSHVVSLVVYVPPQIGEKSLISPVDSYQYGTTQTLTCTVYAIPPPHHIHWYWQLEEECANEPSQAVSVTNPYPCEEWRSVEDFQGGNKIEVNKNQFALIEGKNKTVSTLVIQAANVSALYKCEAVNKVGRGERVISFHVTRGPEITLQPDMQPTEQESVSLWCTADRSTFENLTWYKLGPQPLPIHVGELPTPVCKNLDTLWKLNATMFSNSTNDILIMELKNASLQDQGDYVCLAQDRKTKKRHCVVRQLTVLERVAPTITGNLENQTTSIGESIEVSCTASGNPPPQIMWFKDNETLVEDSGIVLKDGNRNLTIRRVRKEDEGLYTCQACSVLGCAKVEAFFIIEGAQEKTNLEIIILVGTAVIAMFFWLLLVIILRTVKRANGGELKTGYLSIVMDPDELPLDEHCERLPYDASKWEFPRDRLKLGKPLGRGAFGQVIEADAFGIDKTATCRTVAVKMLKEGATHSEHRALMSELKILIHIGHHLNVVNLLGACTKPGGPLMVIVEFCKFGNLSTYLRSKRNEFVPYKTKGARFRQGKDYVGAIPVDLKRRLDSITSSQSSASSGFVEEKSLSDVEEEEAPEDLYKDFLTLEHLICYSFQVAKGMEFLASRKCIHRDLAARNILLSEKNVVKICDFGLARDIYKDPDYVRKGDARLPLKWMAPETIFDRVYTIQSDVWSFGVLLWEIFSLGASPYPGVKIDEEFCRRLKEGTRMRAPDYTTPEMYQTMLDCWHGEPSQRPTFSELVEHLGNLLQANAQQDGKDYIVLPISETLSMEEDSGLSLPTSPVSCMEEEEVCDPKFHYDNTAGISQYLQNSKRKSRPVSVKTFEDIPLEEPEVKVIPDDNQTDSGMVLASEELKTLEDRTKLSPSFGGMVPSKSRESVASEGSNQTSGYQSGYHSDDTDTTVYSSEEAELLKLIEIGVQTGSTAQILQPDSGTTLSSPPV
T1 sequence (P36894 24-532 Q233D): as the sequence (P36895 24-532) above, with L16S, P21S, T74A, V133L, V142I, G164R, Q210D, I373V counted along it

| Compound | inhibition of alk6 activity (alk6) | protein levels of Id1 and Id3 (Id1 and Id3 protein) | level of phosphorylated Smad 1/5/8 expression [3] | inhibition of alk3 activity (alk3) | inhibition of ca-alk6 activity (BRE-luciferase) [6] | inhibition of alk2 activity (alk2) | Smad 1/5/8 activity (BRE-luciferase activity) (Smad 1/5/8 activity) | activity for AMP kinase (comparison) (AMP kinase) | also measured |
| --- | --- | --- | --- | --- | --- | --- | --- | --- | --- |
| CC(C)Oc1ccc(-c2cnc3c(-c4ccnc5ccccc45)cnn3c2)cc1 [DMH1] | negligible inhibitory effects | decrease | decreased | inhibited | partially inhibited alk6 but not as effectively as DMH2 | inhibited | significant decrease | less activity | inhibition of ca-alk3 activity (BRE-luciferase) [1]: significant inhibition; reduction of Id1 protein expression (comparison) (Id1 and Id3 protein; H1299 and A549 cells, 1 μM): greater reduction of Id1 in H1299 cells compared to A549 cells; Id1, Id2, and Id3 expression (mRNA) [2]: significantly decreased; cell death (percentage of cells taking up ethidium bromide) (A549 cells [4]): significant increase in cell death; activity for TGFβ receptor alk5 (comparison) (TGFβ receptor alk5): less activity; activity for VEGF II (comparison) (VEGF II): less activity; activity for platelet-derived growth factor receptor-β (comparison) [5]: less activity; anchorage independent growth (H1299 cells [7]): significantly reduced; anchorage independent growth (A549 cells [8]): significantly reduced |
| c1ccc2c(-c3cnn4cc(-c5ccc(N6CCNCC6)cc5)cnc34)ccnc2c1 [LDN, LDN-193189, reference compound] | effectively inhibits | decrease | decreased | effectively inhibits | very similar to that of DMH2 | effectively inhibits | significant decrease | less AMP kinse activity than Dorsomorphin | cell growth (number of cells) (H1299 cells [9]): more growth inhibition than DMH1; cell growth (number of cells) (A549 cells [10]): more growth inhibition than DMH1; clonogenic growth (H1299 cells [11]): inhibited more by DMH2 and LDN than DMH1; clonogenic growth (A549 cells [12]): inhibited more by DMH2 and LDN than DMH1; phosphorylated Smad 1/5/8 expression ([3]; A549 cells): decrease |
